PMC8963254, “Effects of Lysine N-ζ-Methylation in Ultrashort Tetrabasic Lipopeptides (UTBLPs) on the Potentiation of Rifampicin, Novobiocin, and Niclosamide in Gram-Negative Bacteria” (Antibiotics, 2022)
Like-named read-outs stand apart in the source and are kept apart here. Non-standard residues stand in square brackets, D forms with d. Residues, ends and D or L forms follow the SMILES beside them. *: point of attachment. Lys(Me3) = C[N+](C)(C)CCCC[C@H](N)C(=O)O; Octanoyl = CCCCCCCC(=O)*

Key:
P. aeruginosa PAO1 [1] = type: cell-based, Pseudomonas aeruginosa; conditions: PAO1, 18 h
In short: (§1)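 MIC was determined by broth microdilution following CLSI guidelines. Serially varied compound concentrations were incubated with bacterial inoculum at 5 × 10^5 CFU/mL (final) for 18 h at 37 °C. Growth was scored as turbidity by absorbance at 590 nm.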

A. baumannii ATCC 17978 [2] = type: cell-based, Acinetobacter baumannii; conditions: ATCC 17978, 18 h
In short: as §1

A. baumannii AB027 [3] = test: microbe, parasite or virus in culture; type: cell-based, Acinetobacter baumannii; conditions: AB027, 18 h
In short: as §1

A. baumannii AB92247 = test: microbe, parasite or virus in culture; type: cell-based, Acinetobacter baumannii; conditions: AB92247, 18 h
In short: as §1

E. coli 94393 = test: microbe, parasite or virus in culture; type: cell-based, Escherichia coli; conditions: 94393, 18 h
In short: as §1

E. coli 94474 [4] = test: microbe, parasite or virus in culture; type: cell-based, Escherichia coli; conditions: 94474, 18 h
In short: as §1

E. cloacae 118564 = test: microbe, parasite or virus in culture; type: cell-based, Enterobacter cloacae; conditions: 118564, 18 h
In short: as §1

K. pneumoniae 113250 = test: microbe, parasite or virus in culture; type: cell-based, Klebsiella pneumoniae; conditions: 113250, 18 h
In short: as §1

[5] = test system: P. aeruginosa PA259-96196; type: cell-based, Pseudomonas aeruginosa; conditions: for MICUTBLP: UTBLP alone
In short: (§2)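 Values derive from a two-agent checkerboard with an 18 h, 37 °C incubation. FICI cut-offs: ≤0.5 synergy, 0.5–4 additive, >4 antagonism.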

[6] = test system: P. aeruginosa PA262-101856; type: cell-based, Pseudomonas aeruginosa; conditions: for MICUTBLP: UTBLP alone
In short: as §2

P. aeruginosa PAO1 [7] = type: cell-based, Pseudomonas aeruginosa; conditions: for MICUTBLP: UTBLP alone
In short: as §2

A. baumannii 92247 = type: cell-based, Acinetobacter baumannii; conditions: for MICUTBLP: UTBLP alone
In short: as §2

A. baumannii AB027 [8] = type: cell-based, Acinetobacter baumannii; conditions: for MICUTBLP: UTBLP alone
In short: as §2

A. baumannii ATCC 17978 [9] = type: cell-based, Acinetobacter baumannii; conditions: for MICUTBLP: UTBLP alone
In short: as §2

E. coli 94474 [10] = type: cell-based, Escherichia coli; conditions: for MICUTBLP: UTBLP alone
In short: as §2

MRSE 61589 = type: cell-based, Staphylococcus epidermidis
In short: as §2

MSSE 81388 = type: cell-based, Staphylococcus epidermidis
In short: as §2

E. faecalis ATCC 29212 = type: cell-based, Enterococcus faecalis
In short: as §2

[11] = UTBLP in combination with novobiocin
[12] = UTBLP in combination with rifampicin
[13] = novobiocin in combination with the UTBLP
[14] = rifampicin in combination with the UTBLP
[15] = UTBLP in combination with chloramphenicol
[16] = UTBLP in combination with niclosamide
[17] = chloramphenicol in combination with the UTBLP
[18] = niclosamide in combination with the UTBLP
[19] = UTBLP alone, plate with chloramphenicol

- MIC (P. aeruginosa PAO1 [1]): >128 µg/mL
- MIC (A. baumannii ATCC 17978 [2]): >128 µg/mL
- MIC (A. baumannii AB027 [3]): > 128 µg/mL
- MIC (A. baumannii AB92247): 128 µg/mL
- MIC (E. coli 94393): 128 µg/mL
- MIC (E. coli 94474 [4]): > 128 µg/mL
- MIC (E. cloacae 118564): > 128 µg/mL
- MIC (K. pneumoniae 113250): > 128 µg/mL
- MICUTBLP ([5]; plate with novobiocin): > 128 µg/mL
- MICUTBLP ([5]; plate with rifampicin): > 128 µg/mL
- MICUTBLP [MICcombo] [5, 11]: 16 µg/mL
- MICUTBLP [MICcombo] [5, 12]: 16 µg/mL
- MICantibiotic [MICcombo] [5, 13]: 1024 µg/mL
- MICantibiotic [MICcombo] [5, 14]: 16 µg/mL
- MICUTBLP ([6]; plate with novobiocin): > 128 µg/mL
- MICUTBLP ([6]; plate with rifampicin): > 128 µg/mL
- MICUTBLP [MICcombo] [6, 11]: 16 µg/mL
- MICUTBLP [MICcombo] [6, 12]: 16 µg/mL
- MICantibiotic [MICcombo] [6, 13]: 1024 µg/mL
- MICantibiotic [MICcombo] [6, 14]: 512 µg/mL
- MICUTBLP (P. aeruginosa PAO1 [7]; plate with chloramphenicol): > 128 µg/mL
- MICUTBLP (P. aeruginosa PAO1 [7]; plate with niclosamide): > 128 µg/mL
- MICUTBLP (P. aeruginosa PAO1 [7]; plate with novobiocin): > 128 µg/mL
- MICUTBLP (P. aeruginosa PAO1 [7]; plate with rifampicin): > 128 µg/mL
- MICUTBLP [MICcombo] (P. aeruginosa PAO1 [7]; [15]): 0.25 µg/mL
- MICUTBLP [MICcombo] (P. aeruginosa PAO1 [7]; [16]): 0.25 µg/mL
- MICUTBLP [MICcombo] (P. aeruginosa PAO1 [7]; [11]): 0.25 µg/mL
- MICUTBLP [MICcombo] (P. aeruginosa PAO1 [7]; [12]): 0.25 µg/mL
- MICantibiotic [MICcombo] (P. aeruginosa PAO1 [7]; [17]): 16 µg/mL
- MICantibiotic [MICcombo] (P. aeruginosa PAO1 [7]; [18]): 1024 µg/mL
- MICantibiotic [MICcombo] (P. aeruginosa PAO1 [7]; [13]): 512 µg/mL
- MICantibiotic [MICcombo] (P. aeruginosa PAO1 [7]; [14]): 16 µg/mL
- MICUTBLP (A. baumannii 92247; plate with novobiocin): 128 µg/mL
- MICUTBLP (A. baumannii 92247; plate with rifampicin): 128 µg/mL
- MICUTBLP [MICcombo] (A. baumannii 92247; [11]): 16 µg/mL
- MICUTBLP [MICcombo] (A. baumannii 92247; [12]): 16 µg/mL
- MICantibiotic [MICcombo] (A. baumannii 92247; [13]): 0.125 µg/mL
- MICantibiotic [MICcombo] (A. baumannii 92247; [14]): 0.5 µg/mL
- MICUTBLP (A. baumannii AB027 [8]; plate with novobiocin): > 128 µg/mL
- MICUTBLP (A. baumannii AB027 [8]; plate with rifampicin): > 128 µg/mL
- MICUTBLP [MICcombo] (A. baumannii AB027 [8]; [11]): 16 µg/mL
- MICUTBLP [MICcombo] (A. baumannii AB027 [8]; [12]): 16 µg/mL
- MICantibiotic [MICcombo] (A. baumannii AB027 [8]; [13]): 2 µg/mL
- MICantibiotic [MICcombo] (A. baumannii AB027 [8]; [14]): 0.25 µg/mL
- MICUTBLP (A. baumannii ATCC 17978 [9]; plate with chloramphenicol): > 128 µg/mL
- MICUTBLP (A. baumannii ATCC 17978 [9]; plate with niclosamide): > 128 µg/mL
- MICUTBLP (A. baumannii ATCC 17978 [9]; plate with novobiocin): > 128 µg/mL
- MICUTBLP (A. baumannii ATCC 17978 [9]; plate with rifampicin): > 128 µg/mL
- MICUTBLP [MICcombo] (A. baumannii ATCC 17978 [9]; [15]): 0.25 µg/mL
- MICUTBLP [MICcombo] (A. baumannii ATCC 17978 [9]; [16]): 2 µg/mL
- MICUTBLP [MICcombo] (A. baumannii ATCC 17978 [9]; [11]): 16 µg/mL
- MICUTBLP [MICcombo] (A. baumannii ATCC 17978 [9]; [12]): 16 µg/mL
- MICantibiotic [MICcombo] (A. baumannii ATCC 17978 [9]; [17]): 64 µg/mL
- MICantibiotic [MICcombo] (A. baumannii ATCC 17978 [9]; [18]): 16 µg/mL
- MICantibiotic [MICcombo] (A. baumannii ATCC 17978 [9]; [13]): 4 µg/mL
- MICantibiotic [MICcombo] (A. baumannii ATCC 17978 [9]; [14]): 0.25 µg/mL
- MICUTBLP (E. coli 94474 [10]; plate with novobiocin): > 128 µg/mL
- MICUTBLP (E. coli 94474 [10]; plate with rifampicin): > 128 µg/mL
- MICUTBLP [MICcombo] (E. coli 94474 [10]; [11]): 8 µg/mL
- MICUTBLP [MICcombo] (E. coli 94474 [10]; [12]): 16 µg/mL
- MICantibiotic [MICcombo] (E. coli 94474 [10]; [13]): 64 µg/mL
- MICantibiotic [MICcombo] (E. coli 94474 [10]; [14]): 4 µg/mL
- MICUTBLP (MRSE 61589; [19]): 128 µg/mL
- MICUTBLP [MICcombo] (MRSE 61589; [15]): 0.25 µg/mL
- MICchloramphenicol [MICcombo] (MRSE 61589; [17]): 8 µg/mL
- MICUTBLP (MSSE 81388; [19]): 128 µg/mL
- MICUTBLP [MICcombo] (MSSE 81388; [15]): 0.25 µg/mL
- MICchloramphenicol [MICcombo] (MSSE 81388; [17]): 4 µg/mL
- MICUTBLP (E. faecalis ATCC 29212; [19]): 128 µg/mL
- MICUTBLP [MICcombo] (E. faecalis ATCC 29212; [15]): 16 µg/mL
- MICchloramphenicol [MICcombo] (E. faecalis ATCC 29212; [17]): 4 µg/mL
Structure (SMILES): CCCCCCCC(=O)NCCCC[C@H](NC(=O)CCCCCCC)C(=O)N[C@@H](CCCC[N+](C)(C)C)C(=O)N[C@@H](CCCC[N+](C)(C)C)C(=O)N[C@@H](CCCC[N+](C)(C)C)C(=O)N[C@@H](CCCC[N+](C)(C)C)C(N)=O [UTBLP 8] (Octanoyl-K(Octanoyl)[Lys(Me3)][Lys(Me3)][Lys(Me3)][Lys(Me3)]-NH2)
- Interpretation ([5]; UTBLP + novobiocin): Additive (0.5 < x ≤ 4 is additive)
- Interpretation ([5]; UTBLP + rifampicin): Additive (0.5 < x ≤ 4 is additive)
- Interpretation ([6]; UTBLP + novobiocin): Additive (0.5 < x ≤ 4 is additive)
- Interpretation ([6]; UTBLP + rifampicin): Additive (0.5 < x ≤ 4 is additive)
- Interpretation (P. aeruginosa PAO1 [7]; UTBLP + chloramphenicol): Additive (0.5 < x ≤ 4 is additive)
- Interpretation (P. aeruginosa PAO1 [7]; UTBLP + niclosamide): Additive (0.5 < x ≤ 4 is additive)
- Interpretation (P. aeruginosa PAO1 [7]; UTBLP + novobiocin): Additive (0.5 < x ≤ 4 is additive)
- Interpretation (P. aeruginosa PAO1 [7]; UTBLP + rifampicin): Additive (0.5 < x ≤ 4 is additive)
- Interpretation (A. baumannii 92247; UTBLP + novobiocin): Synergy (FICI ≤ 0.5 is synergistic)
- Interpretation (A. baumannii 92247; UTBLP + rifampicin): Synergy (FICI ≤ 0.5 is synergistic)
- Interpretation (A. baumannii AB027 [8]; UTBLP + novobiocin): Synergy (FICI ≤ 0.5 is synergistic)
- Interpretation (A. baumannii AB027 [8]; UTBLP + rifampicin): Synergy (FICI ≤ 0.5 is synergistic)
- Interpretation (A. baumannii ATCC 17978 [9]; UTBLP + chloramphenicol): Additive (0.5 < x ≤ 4 is additive)
- Interpretation (A. baumannii ATCC 17978 [9]; UTBLP + niclosamide): Synergy (FICI ≤ 0.5 is synergistic)
- Interpretation (A. baumannii ATCC 17978 [9]; UTBLP + novobiocin): Synergy (FICI ≤ 0.5 is synergistic)
- Interpretation (A. baumannii ATCC 17978 [9]; UTBLP + rifampicin): Synergy (FICI ≤ 0.5 is synergistic)
- Interpretation (E. coli 94474 [10]; UTBLP + novobiocin): Synergy (FICI ≤ 0.5 is synergistic)
- Interpretation (E. coli 94474 [10]; UTBLP + rifampicin): Additive (0.5 < x ≤ 4 is additive)
- Interpretation (MRSE 61589; UTBLP + chloramphenicol): Additive (0.5 < x ≤ 4 is additive)
- Interpretation (MSSE 81388; UTBLP + chloramphenicol): Additive (0.5 < x ≤ 4 is additive)
- Interpretation (E. faecalis ATCC 29212; UTBLP + chloramphenicol): Additive (0.5 < x ≤ 4 is additive)
